“And” between values parts separate entries of the source, which are not always exact repeats. Equal values may be shown once. Toxic doses and inconclusive results are not listed. Rule as the data show it: active = T/C of 150% or more; inactive = T/C below 125%.
System: L1210 leukemia ip in BDF1 mice, survival T/C
Assay: NCI In Vivo Anticancer Drug Screen. Data for tumor model L1210 Leukemia (intraperitoneal) in B6D2F1 (BDF1) mice
Settings: endpoint: mean survival time, higher = longer survival
In short: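 Each compound was tested against a transplantable tumor grown in mice. The endpoint was survival, with treated animals benchmarked against vehicle controls as a simple ratio.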

[1] = dose: 300.0 mg/kg/injection, schedule: Q01DX001 (ip), vehicle: other
[2] = dose: 100.0 mg/kg/injection, schedule: Q01DX009 (ip), vehicle: Klucel (hydroxypropylcellulose) (HPC)
[3] = dose: 100.0 mg/kg/injection, schedule: Q04DX003 (ip), vehicle: Klucel (hydroxypropylcellulose) (HPC)
[4] = dose: 200.0 mg/kg/injection, schedule: Q01DX009 (ip), vehicle: Klucel (hydroxypropylcellulose) (HPC)
[5] = dose: 200.0 mg/kg/injection, schedule: Q04DX003 (ip), vehicle: Klucel (hydroxypropylcellulose) (HPC)
[6] = dose: 400.0 mg/kg/injection, schedule: Q01DX009 (ip), vehicle: Klucel (hydroxypropylcellulose) (HPC)
[7] = dose: 100.0 mg/kg/injection, schedule: Q04DX003 (ip), vehicle: saline with Tween-80
[8] = dose: 200.0 mg/kg/injection, schedule: Q04DX003 (ip), vehicle: saline with Tween-80
[9] = dose: 400.0 mg/kg/injection, schedule: Q04DX003 (ip), vehicle: saline with Tween-80
[10] = dose: 100.0 mg/kg/injection, schedule: Q04DX003 (ip), vehicle: saline
[11] = dose: 100.0 mg/kg/injection, schedule: Q01DX001 (ip), vehicle: saline with Tween-80
[12] = dose: 200.0 mg/kg/injection, schedule: Q01DX001 (ip), vehicle: saline with Tween-80
[13] = dose: 400.0 mg/kg/injection, schedule: Q01DX001 (ip), vehicle: saline with Tween-80

Measured: T/C

O=C1CCC(=O)N1SC(Cl)(Cl)Cl
inactive: dose: 7.5 mg/kg/injection, schedule: Q01DX009 (ip), vehicle: saline 101 % of control | dose: 15.0 mg/kg/injection, schedule: Q01DX009 (ip), vehicle: saline 101 % of control | dose: 30.0 mg/kg/injection, schedule: Q01DX009 (ip), vehicle: saline 106 % of control | dose: 45.0 mg/kg/injection, schedule: Q01DX009 (ip), vehicle: saline 99 % of control | dose: 70.0 mg/kg/injection, schedule: Q01DX009 (ip), vehicle: saline 92 % of control | dose: 100.0 mg/kg/injection, schedule: Q01DX001 (ip), vehicle: other 103 % of control | dose: 100.0 mg/kg/injection, schedule: Q04DX002 (ip), vehicle: saline with Tween-80 87 % of control | dose: 105.0 mg/kg/injection, schedule: Q01DX009 (ip), vehicle: saline 89 % of control | dose: 200.0 mg/kg/injection, schedule: Q01DX001 (ip), vehicle: other 95 % of control | dose: 240.0 mg/kg/injection, schedule: Q01DX009 (ip), vehicle: saline 88 % of control | [1] 98 % of control | dose: 360.0 mg/kg/injection, schedule: Q01DX009 (ip), vehicle: saline 86 % of control

NC1=C(c2ccccc2)C(=O)c2ccccc21
inactive: [2] 107 % of control | [3] 106 % of control | [4] 86 % of control | [5] 95 % of control | [6] 96 % of control | dose: 400.0 mg/kg/injection, schedule: Q04DX003 (ip), vehicle: Klucel (hydroxypropylcellulose) (HPC) 90 % of control

CN(C)c1ccc(C=Nc2cccc([N+](=O)[O-])c2)cc1
inactive: dose: 100.0 mg/kg/injection, schedule: Q01DX001 (ip), vehicle: Klucel (hydroxypropylcellulose) (HPC) 91 % of control | dose: 200.0 mg/kg/injection, schedule: Q01DX001 (ip), vehicle: Klucel (hydroxypropylcellulose) (HPC) 86 % of control | dose: 400.0 mg/kg/injection, schedule: Q01DX001 (ip), vehicle: Klucel (hydroxypropylcellulose) (HPC) 90 % of control

CCC(=O)c1ccc(N=Nc2c(N)nc(N)nc2N)cc1
inactive: dose: 100.0 mg/kg/injection, schedule: Q01DX001 (ip), vehicle: saline 110 % of control | dose: 200.0 mg/kg/injection, schedule: Q01DX001 (ip), vehicle: saline 94 % of control

CCCCNCCC(=O)c1ccc(Cl)cc1
inactive: dose: 6.25 mg/kg/injection, schedule: Q01DX009 (ip), vehicle: saline with Tween-80 98 % of control | dose: 12.5 mg/kg/injection, schedule: Q01DX009 (ip), vehicle: saline with Tween-80 100 % of control | dose: 25.0 mg/kg/injection, schedule: Q01DX009 (ip), vehicle: saline with Tween-80 94 % of control

Nc1ccc2ncsc2c1
inactive: dose: 100.0 mg/kg/injection, schedule: Q01DX009 (ip), vehicle: saline with Tween-80 114 % of control | [7] 102 % of control | dose: 200.0 mg/kg/injection, schedule: Q01DX009 (ip), vehicle: saline with Tween-80 88 % of control | [8] 95 % of control | [9] 98 % of control

C[n+]1ccc(/C=C\Nc2ccccc2)cc1
inactive: dose: 75.0 mg/kg/injection, schedule: Q01DX001 (ip), vehicle: other 94 % of control | dose: 150.0 mg/kg/injection, schedule: Q01DX001 (ip), vehicle: other 94 % of control | [1] 94 % of control

O=C(Nc1cccc(C(F)(F)F)c1)N(Cc1ccccc1)c1ccccc1
inactive: [2] 109 % of control | [4] 95 % of control | [6] 96 % of control

Cc1ccc(C(C)C)c(OCC(O)CN2CC=CCC2)c1 (centres undefined)
inactive: dose: 25.0 mg/kg/injection, schedule: Q04DX003 (ip), vehicle: saline 100 % of control | dose: 50.0 mg/kg/injection, schedule: Q04DX003 (ip), vehicle: saline 112 % of control | [10] 99 % of control and 109 % of control

CSc1ncnc2c1ncn2-n1c(C)ccc1C
inactive: [11] 89 % of control | [7] 96 % of control | [12] 90 % of control | [8] 94 % of control | [13] 93 % of control | [9] 93 % of control

S=c1c2[nH]cnc2ncn1C1CCCC1
inactive: dose: 5.0 mg/kg/injection, schedule: Q01DX001 (ip), vehicle: other 100 % of control | dose: 10.0 mg/kg/injection, schedule: Q01DX001 (ip), vehicle: other 106 % of control | dose: 15.0 mg/kg/injection, schedule: Q01DX009 (ip), vehicle: saline with Tween-80 119 % of control | dose: 20.0 mg/kg/injection, schedule: Q01DX001 (ip), vehicle: other 103 % of control | dose: 33.5 mg/kg/injection, schedule: Q01DX009 (ip), vehicle: saline with Tween-80 104 % of control

CCOC(=O)c1ccc(NC(=O)/C=C/C(=O)O)cc1
inactive: [2] 100 % of control | [4] 95 % of control | [6] 98 % of control

N/N=C(/C=N/N)C(O)CO (centres undefined)
inactive: dose: 25.0 mg/kg/injection, schedule: Q01DX001 (ip), vehicle: saline with Tween-80 95 % of control | dose: 50.0 mg/kg/injection, schedule: Q01DX001 (ip), vehicle: saline with Tween-80 98 % of control | [11] 89 % of control and 92 % of control | [13] 92 % of control

COC(=O)c1cn(C2OC(CO)C(O)C2O)c2ncnc(N)c12 (centres undefined)
inactive: dose: 20.0 mg/kg/injection, schedule: Q01DX001 (ip), vehicle: water 108 % of control | dose: 40.0 mg/kg/injection, schedule: Q01DX001 (ip), vehicle: water 89 % of control

C=CS(=O)(=O)c1ccc(C)cc1
inactive: dose: 25.0 mg/kg/injection, schedule: Q04DX002 (ip), vehicle: Klucel (hydroxypropylcellulose) (HPC) 104 % of control | dose: 50.0 mg/kg/injection, schedule: Q04DX002 (ip), vehicle: Klucel (hydroxypropylcellulose) (HPC) 110 % of control | dose: 100.0 mg/kg/injection, schedule: Q04DX002 (ip), vehicle: Klucel (hydroxypropylcellulose) (HPC) 96 % of control and 104 % of control

CC(=O)NC1C(OCc2ccccc2)OC2COC(C)(C)OC2C1O (centres undefined)
inactive: [11] 107 % of control | [12] 93 % of control | [13] 110 % of control

CCN(CC)CCSC(=O)C(O)(c1ccccc1)C1CCCC1 (centres undefined)
inactive: dose: 25.0 mg/kg/injection, schedule: Q01DX009 (ip), vehicle: saline 103 % of control | dose: 50.0 mg/kg/injection, schedule: Q01DX009 (ip), vehicle: saline 97 % of control and 108 % of control | dose: 75.0 mg/kg/injection, schedule: Q01DX001 (ip), vehicle: saline 96 % of control | dose: 100.0 mg/kg/injection, schedule: Q01DX009 (ip), vehicle: saline 100 % of control and 88 % of control | [10] 102 % of control | dose: 150.0 mg/kg/injection, schedule: Q01DX001 (ip), vehicle: saline 92 % of control | dose: 200.0 mg/kg/injection, schedule: Q04DX003 (ip), vehicle: saline 100 % of control

CC(=O)Nc1ccc(N=Nc2ccccc2)cc1C
inactive: dose: 50.0 mg/kg/injection, schedule: Q04DX003 (ip), vehicle: Klucel (hydroxypropylcellulose) (HPC) 100 % of control | [3] 96 % of control | [5] 96 % of control

COc1ccc(C(C)=O)cc1CCCOC(C)=O
inactive: dose: 100.0 mg/kg/injection, schedule: Q01DX001 (ip), vehicle: carboxymethylcellulose (CMC) 95 % of control | dose: 200.0 mg/kg/injection, schedule: Q01DX001 (ip), vehicle: carboxymethylcellulose (CMC) 106 % of control | dose: 400.0 mg/kg/injection, schedule: Q01DX001 (ip), vehicle: carboxymethylcellulose (CMC) 101 % of control

Reference: PubChem BioAssay AID248 (DTP/NCI, 2004)
